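Each compound was tested at five concentrations against cells in 96-well plates for 48 hours. Here, GI50 denotes the concentration required for 50% inhibition of growth.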 Calls of active or inactive are those of the source. Rule as the data show it: active = GI50 up to about 1.1 µM and inactive = higher.
How the values were obtained:
Assay in all cases: NCI tumour cell line growth inhibition, 48 h
COLO 205 = system: COLO 205
EKVX = system: EKVX
HCT-15 = system: HCT-15
K562 = system: K562
M14 = system: M14
MCF7 = system: MCF7
MDA-MB-435 = system: MDA-MB-435
MDA-N = system: MDA-N
MOLT-4 = system: MOLT-4
NCI-H522 = system: NCI-H522
NCI/ADR-RES = system: NCI/ADR-RES
OVCAR-3 = system: OVCAR-3
PC-3 = system: PC-3
RPMI-8226 = system: RPMI-8226
SF-295 = system: SF-295
U-251 = system: U-251
UO-31 = system: UO-31
LOX IMVI = system: LOX IMVI
NCI-H226 = system: NCI-H226
RXF 393 = system: RXF 393

SMILES | GI50 (COLO 205) | GI50 (EKVX) | GI50 (HCT-15) [µM] | GI50 (K562) | GI50 (M14) | GI50 (MCF7) | GI50 (MDA-MB-435) | GI50 (MDA-N) | GI50 (MOLT-4) | GI50 (NCI-H522) | GI50 (NCI/ADR-RES) | GI50 (OVCAR-3) | GI50 (PC-3) | GI50 (RPMI-8226) | GI50 (SF-295) | GI50 (U-251) | GI50 (UO-31) | GI50 (LOX IMVI) | GI50 (NCI-H226) | GI50 (RXF 393)
CN1C2=Nc3n(C)c4ccccc4[n+]3CN2c2ccccc21 | 12.7 µM (inactive) | 36.1 µM (inactive) | > 100 | 29.5 µM (inactive) | 43.7 µM (inactive) | 10.5 µM (inactive) | 26.5 µM (inactive) | 17.8 µM (inactive) | 16.8 µM (inactive) | 16.8 µM (inactive) | > 100 µM (inactive) | 10.8 µM (inactive) | 47.3 µM (inactive) | 41.1 µM (inactive) | 95.7 µM (inactive) | 25.2 µM (inactive) | > 100 µM (inactive) | – | – | –
O=C1COc2cc(N3CCN(c4cccc(C(F)(F)F)c4)CC3)ccc2N1 | > 100 µM (inactive) | > 100 µM (inactive) | > 100 | > 100 µM (inactive) | > 100 µM (inactive) | > 100 µM (inactive) | > 100 µM (inactive) | > 100 µM (inactive) | > 100 µM (inactive) | 86.3 µM (inactive) | > 100 µM (inactive) | > 100 µM (inactive) | > 100 µM (inactive) | > 100 µM (inactive) | > 100 µM (inactive) | > 100 µM (inactive) | > 100 µM (inactive) | > 100 µM (inactive) | > 100 µM (inactive) | –
CN(C)CC1CCC/C(=C\c2ccc(Cl)cc2)C1=O (stereo not given) | 2.12 µM (inactive) | 11.2 µM (inactive) | 2.05 | 1 µM (active) | 2.28 µM (inactive) | 1.24 µM (inactive) | 3.83 µM (inactive) | 1.94 µM (inactive) | 0.9 µM (active) | 1.75 µM (inactive) | 3.62 µM (inactive) | 3.21 µM (inactive) | 2.67 µM (inactive) | 0.254 µM (active) | 14.2 µM (inactive) | 3.71 µM (inactive) | 2.25 µM (inactive) | 1.63 µM (inactive) | 14.7 µM (inactive) | –
CN1CC2=C(N=C(S)NC2c2ccccc2)/C(=C/c2ccccc2)C1 (stereo not given) | 34.8 µM (inactive) | 75.2 µM (inactive) | 33 | 33 µM (inactive) | 25.4 µM (inactive) | 40.4 µM (inactive) | 46.8 µM (inactive) | 35.7 µM (inactive) | 13 µM (inactive) | 43 µM (inactive) | > 100 µM (inactive) | 99.8 µM (inactive) | 15 µM (inactive) | 46.6 µM (inactive) | 17.9 µM (inactive) | 54.5 µM (inactive) | 60.5 µM (inactive) | 29.7 µM (inactive) | > 100 µM (inactive) | –
Cc1cn2c(/C=C3/C(=O)Nc4ccccc43)c(-c3ccccc3)nc2s1 | > 100 µM (inactive) | 71.3 µM (inactive) | > 100 | > 100 µM (inactive) | > 100 µM (inactive) | 29.4 µM (inactive) | > 100 µM (inactive) | > 100 µM (inactive) | > 100 µM (inactive) | > 100 µM (inactive) | 37.5 µM (inactive) | 85.3 µM (inactive) | 57.3 µM (inactive) | > 100 µM (inactive) | 37.5 µM (inactive) | 29.3 µM (inactive) | 23.2 µM (inactive) | 91 µM (inactive) | – | 27 µM (inactive)
C=C1C(=O)OC2CC(=C)C3CC=C(C)C3CC12 (stereo not given) | 17.9 µM (inactive) | 64.6 µM (inactive) | 17.5 | 11 µM (inactive) | 18 µM (inactive) | 20.1 µM (inactive) | 15.7 µM (inactive) | 16.4 µM (inactive) | 17.3 µM (inactive) | 14.4 µM (inactive) | 35.5 µM (inactive) | 27.5 µM (inactive) | 14.9 µM (inactive) | 14.2 µM (inactive) | 32.4 µM (inactive) | 15.3 µM (inactive) | 15.9 µM (inactive) | 11.1 µM (inactive) | 15.6 µM (inactive) | –
Oc1c(OCc2nnc(CCCCCCCCc3nnc(COc4ccc5ccccc5c4O)o3)o2)ccc2ccccc12 | > 100 µM (inactive) | > 100 µM (inactive) | > 100 | 91.6 µM (inactive) | > 100 µM (inactive) | > 100 µM (inactive) | > 100 µM (inactive) | > 100 µM (inactive) | 19.7 µM (inactive) | > 100 µM (inactive) | 64 µM (inactive) | – | > 100 µM (inactive) | > 100 µM (inactive) | > 100 µM (inactive) | 41.7 µM (inactive) | 59.6 µM (inactive) | – | > 100 µM (inactive) | > 100 µM (inactive)
CCOC(=O)c1nc2ccccc2nc1Nc1ccc(C(=O)OC)s1 | > 100 µM (inactive) | > 100 µM (inactive) | > 100 | – | > 100 µM (inactive) | > 100 µM (inactive) | > 100 µM (inactive) | > 100 µM (inactive) | > 100 µM (inactive) | 47.4 µM (inactive) | > 100 µM (inactive) | > 100 µM (inactive) | > 100 µM (inactive) | > 100 µM (inactive) | > 100 µM (inactive) | > 100 µM (inactive) | > 100 µM (inactive) | > 100 µM (inactive) | – | –
CCOC(=O)c1ccc(Nc2nc3cc(C(F)(F)F)ccc3nc2C(=O)OCC)cc1 | 46.9 µM (inactive) | > 100 µM (inactive) | > 100 | 31 µM (inactive) | 34.2 µM (inactive) | > 100 µM (inactive) | > 100 µM (inactive) | > 100 µM (inactive) | > 100 µM (inactive) | > 100 µM (inactive) | > 100 µM (inactive) | 58.6 µM (inactive) | 47.8 µM (inactive) | > 100 µM (inactive) | 38.3 µM (inactive) | 19.7 µM (inactive) | > 100 µM (inactive) | 42.8 µM (inactive) | – | > 100 µM (inactive)
CC(=O)OCCCOCn1c(Cc2ccccc2)c(C)c(=O)[nH]c1=O | > 100 µM (inactive) | > 100 µM (inactive) | > 100 | > 100 µM (inactive) | > 100 µM (inactive) | > 100 µM (inactive) | > 100 µM (inactive) | > 100 µM (inactive) | > 100 µM (inactive) | > 100 µM (inactive) | – | > 100 µM (inactive) | > 100 µM (inactive) | > 100 µM (inactive) | > 100 µM (inactive) | > 100 µM (inactive) | > 100 µM (inactive) | > 100 µM (inactive) | > 100 µM (inactive) | > 100 µM (inactive)
C[C@@H]1CCC2[C@@H](C)C(=O)O[C@@H]3C4C[C@@H]1[C@@]23OO[C@@]4(C)O (stereo not given in full) | > 100 µM (inactive) | 57.7 µM (inactive) | > 100 | > 100 µM (inactive) | > 100 µM (inactive) | 62.8 µM (inactive) | 72.6 µM (inactive) | 55.3 µM (inactive) | 72.1 µM (inactive) | 40.8 µM (inactive) | > 100 µM (inactive) | > 100 µM (inactive) | > 100 µM (inactive) | > 100 µM (inactive) | > 100 µM (inactive) | 48.8 µM (inactive) | 27.9 µM (inactive) | 23.1 µM (inactive) | – | 60.3 µM (inactive)
CC(C)(C)OC(=O)NC(Cc1ccc(OCc2ccccc2)cn1)C(=O)N1CCCC1 (stereo not given) | 68.9 µM (inactive) | 66.8 µM (inactive) | 74.3 | 67.8 µM (inactive) | > 100 µM (inactive) | 62.1 µM (inactive) | 53.7 µM (inactive) | 55.8 µM (inactive) | 34.8 µM (inactive) | 35.3 µM (inactive) | 25.1 µM (inactive) | 25.6 µM (inactive) | 33.4 µM (inactive) | 54.6 µM (inactive) | 30.1 µM (inactive) | 86.7 µM (inactive) | > 100 µM (inactive) | 72.1 µM (inactive) | – | 69.3 µM (inactive)
Nc1cccc2nnccc12 | > 100 µM (inactive) | > 100 µM (inactive) | > 100 | – | > 100 µM (inactive) | > 100 µM (inactive) | > 100 µM (inactive) | > 100 µM (inactive) | – | 19 µM (inactive) | > 100 µM (inactive) | – | > 100 µM (inactive) | > 100 µM (inactive) | > 100 µM (inactive) | > 100 µM (inactive) | > 100 µM (inactive) | – | > 100 µM (inactive) | > 100 µM (inactive)
O=C(c1ccccc1)c1sc2c(=O)c(C(=O)c3ccccc3)c(C(=O)c3ccccc3)sc2c(=O)c1C(=O)c1ccccc1 | > 100 µM (inactive) | > 100 µM (inactive) | 35 | 15.9 µM (inactive) | 31.5 µM (inactive) | 23.7 µM (inactive) | 27.1 µM (inactive) | 32.2 µM (inactive) | 20.7 µM (inactive) | 18 µM (inactive) | 24.5 µM (inactive) | 98.6 µM (inactive) | > 100 µM (inactive) | – | 96.6 µM (inactive) | 44.3 µM (inactive) | 5.97 µM (inactive) | 25.1 µM (inactive) | 82.4 µM (inactive) | 23.8 µM (inactive)
O=C(NC(=S)Nc1ccc([N+](=O)[O-])cc1)c1ccc2c(c1)Sc1ccccc1O2 | > 100 µM (inactive) | – | > 100 | > 100 µM (inactive) | > 100 µM (inactive) | > 100 µM (inactive) | > 100 µM (inactive) | > 100 µM (inactive) | > 100 µM (inactive) | 48.1 µM (inactive) | > 100 µM (inactive) | > 100 µM (inactive) | > 100 µM (inactive) | – | 89.1 µM (inactive) | 37 µM (inactive) | > 100 µM (inactive) | > 100 µM (inactive) | > 100 µM (inactive) | –

Source: ChEMBL document CHEMBL1201862, “PubChem BioAssay data set” (2004)
